{
  "source": "patent US20160129070A1",
  "about": "“Glutathione Disulfide Compositions and Related Methods for the Treatment of Cancer” (South Dakota Board of Regents, priority 2014, published 2016)",
  "tested_on": "B16-F10 cells lung metastasis",
  "experiment": "Murine lung metastasis assay, B16-F10 cells injected through a tail vein",
  "assay_type": "in vivo, mice",
  "settings": "no pretreatment of cells; 50 mg/kg i.p. daily for 5 days; day 21",
  "source_text": "Mice were housed four in a cage and received food and water ad libitum. All mice were used at approximately 7-10 weeks of age and given at least one week break after arrival. All experimental protocols were approved by the Institutional Animal Care and Use Committee. Procedures for murine lung metastasis assays reported previously were followed with minor modification [Bezault, J., Bhimani, R., Wiprovnick, J., and Furmanski, P. (1994) Cancer Res 54, 2310-2312; Kalland, T. (1986) Cancer Res 46, 3018-3022; Schultz, R. M., Silberman, S., Persky, B., Bajkowski, A. S., and Carmichael, D. F. (1988) Cancer Res 48, 5539-5545]. Mice were divided into 7 mice per group for treatment. B16-F10 cells were grown and maintained as monolayers in RPMI 1640 medium supplemented with 10% FBS and 1% penicillin/streptomycin in 5% CO2 at 37° C. The cells were then subjected to FBS starvation in RPMI 1640 medium without FBS for 24 h. Cells were harvested through trypsinization and adjusted to a density of […] with serum free medium. […] The weight of mice was recorded daily. […] Tumor nodules on lung surface were counted under a magnifier.\nFIG. 5 presents the representative photographs of the lungs dissected from mice with different treatments. […] The effect was further confirmed by the metastatic tumors counted under a magnifier (Table 3). […]",
  "data": [
    {"smiles": "CN(C)/N=N/c1[nH]cnc1C(N)=O", "note": "[Dacarbazine]", "values": [
      {"measurement": "Number of metastatic tumors in murine lungs, Average", "value": "0.8 ± 2.0"}
    ]}
  ]
}
